Measurements taken from EP1980567A1, “New disaccharide-based tensides and emulsifiers” (Beiersdorf AG, priority 2005, dated 2006).
Values belong to the compound of their own block, whether it stands above or below them.

What was measured:
[1] = Gel formation in water: phase transition temperature (Tgel) from gel to isotropic solution; assay type: physicochemical; settings: for Übergangstemperatur: 0.1 Gew.%, gel up to this temperature, liquid above
Procedure: Tabelle 1: Phasenumwandlungstemperaturen (Tgel) vom Gel zur isotropen Lösung für unterschiedliche Konzentrationen an Lipid (Abweichung ± 0.5 °C). Die Verbindung bildet ein stabiles Gel und oberhalb von Tgel eine klare Lösung. Tgel ist definiert als die Temperatur bei der das Gel sich beginnt aufzulösen. Die Temperaturspanne des Übergangs beträgt im Normalfall 2 bis 5 °C.

[2] = Gel formation in dimethyl sulfoxide (DMSO) / water mixtures; assay type: physicochemical; parameters: key: G=Gel; Gp = Teilweise geliert; I = Isotrope Lösung; S = Fest beim Abkühlen (bedingt durch gefrorenes Lösungsmittel); settings: 0.1 Gew.%
Procedure: Tabelle 2: Phasenumwandlungstemperaturen (Tgel) vom Gel zur isotropen Lösung für unterschiedliche Lösungsmittelzusammensetzung (Dimethylsulfoxid, DMSO und Wasser, H2O) bei gleichbleibender Lipidkonzentration (0.1 Gew.%) (Abweichung ± 0.5 °C). Die Verbindung formt klare Gele oder geliert nur teilweise, oberhalb der Übergangstemperatur bildet sie eine klare Lösung. Tgel ist definiert als die Temperatur bei der das Gel sich beginnt aufzulösen. Die Temperaturspanne des Übergangs beträgt im Normalfall 2 bis 5 °C.

[3] = Foam behaviour on hair / in the hand; settings: 1 Gew% in Wasser, with hair strands, rubbed in the hand; single component
Source text: Hier zeigte sich erstaunlicherweise das die erfindungsgemäßen Verbindungen eine vergleichbare Schaumbildung auf der Haut oder dem Haar wie z.B. Laurylethersulfat zeigen, jedoch in deutlich niedrigeren Einsatzkonzentrationen. Aus den Daten für Lac-EG-C12 (Tab. 10) war nicht unbedingt zu erwarten, dass es sich in Wasser beim Verreiben des Tensids in der Hand um einen guten Schaumbildner handelt. Auch in Gegenwart von Haaren wird beim Verreiben des Tensids eine Schaumbildung beobachtet. Dazu wurde 1 Gew% der erfindungsgemäßen Substanz in Wasser in Gegenwart von Haarsträhnen gelöst und in der Hand verrieben. Der Schaum ist wesentlich feinporiger als vergleichbare Schäume von Laurylethersulfat. […] Lac-Laureth-3.

[4] = Foam image and size distribution of the gas bubbles; assay type: physicochemical; settings: 1 Gew.% in Wasser
Procedure: Schaumbild und Größenverteilung der Gasbläschen nach 0 min. (Abb. 2 und 3) und nach 10 min. (Abb. 4 und 5) von Lac-EG-C12 in einer Gesamtkonzentration von 1 Gew.%. in Wasser. Man erkennt, daß der Schaum zu Beginn fast ausschließlich aus Bläschen mit einer Porengröße von unter 10000 µm^2 besteht. Nach 10 min. wird die Größenverteilung etwas flacher, wobei immer noch rund ein Viertel der Bläschen eine Größe von unter 10000 µm^2 aufweist.

[5] = Gel formation in water: phase transition temperature (Tgel) from gel to isotropic solution; assay type: physicochemical
[6] = Foaming capacity and foam stability of aqueous solutions in 100 mL measuring cylinders; assay type: physicochemical; settings: 50°C; immediate volume and 30 min. volume
Procedure: Messungen werden in 100 mL Meßzylindern durchgeführt. Vor Benutzung wird der Meßzylinder mit konzentrierter Nitriersäure gefüllt und 24 Stunden gelagert, danach mit bidestilliertem Wasser für weitere 24 Stunden. Lösungen werden durch Einwaage des Lipids und Zugabe von bidestilliertem Wasser bis zu einem Gesamtgewicht von 10 g (ca. 10 mL) hergestellt. Lösungen der jeweils niedrigeren Konzentration werden durch Verdünnung der ersten hergestellt. Vor der Messung wird der Meßzylinder bei der gewünschten Temperatur gelagert. Zur Schaumbildung wird der Meßzylinder 20 mal innerhalb von 30 Sekunden umgeschwenkt. Die Messung wird bis zu einer Abweichung von nicht mehr als 5 % wiederholt. Schaumvolumina werden direkt nach dem Schwenken des Zylinders (Schäumungsvermögen) und nach 30 Minuten (Schaumstabilität) bestimmt. '

Gelbildung ([1]; in water): kein Gel bildet
SMILES: CCCCCCCCCCCCOCCO[C@H]1O[C@H](CO)[C@@H](O[C@@H]2O[C@H](CO)[C@H](O)[C@H](O)[C@H]2O)[C@H](O)[C@H]1O [Lac-α-EG-C12, (2'-Dodecyloxyethyl) 4-O-(β-D-galactopyranosyl)-α-D-glucopyranosid]

SMILES: CCCCCCCCCCCCOCCO[C@@H]1O[C@H](CO)[C@@H](O[C@@H]2O[C@H](CO)[C@H](O)[C@H](O)[C@H]2O)[C@H](O)[C@H]1O [Lac-EG-C12, (2'-Dodecyloxyethyl) 4-O-(β-D-galactopyranosyl)-β-D-glucopyranosid]
Gelbildungsverhalten ([2]; H2O /DMSO 1:9, 4 °C): I
Gelbildungsverhalten ([2]; H2O /DMSO 1:9, 20 °C): I
Gelbildungsverhalten ([2]; H2O /DMSO 1:9, -27 °C): S
Gelbildungsverhalten ([2]; H2O /DMSO 2:8, 4 °C): I
Gelbildungsverhalten ([2]; H2O /DMSO 2:8, 20 °C): I
Gelbildungsverhalten ([2]; H2O /DMSO 2:8, -27 °C): S
Gelbildungsverhalten ([2]; H2O /DMSO 3:7, 4 °C): Gp
Gelbildungsverhalten ([2]; H2O /DMSO 3:7, 20 °C): I
Gelbildungsverhalten ([2]; H2O /DMSO 3:7, -27 °C): S
Gelbildungsverhalten ([2]; H2O /DMSO 4:6, 4 °C): G
Gelbildungsverhalten ([2]; H2O /DMSO 4:6, 20 °C): G
Gelbildungsverhalten ([2]; H2O /DMSO 4:6, 39 °C): Gp
Gelbildungsverhalten ([2]; H2O /DMSO 4:6, 50 °C): I
Gelbildungsverhalten ([2]; H2O /DMSO 4:6, -27 °C): S
Gelbildungsverhalten ([2]; H2O /DMSO 5:5, 4 °C): G
Gelbildungsverhalten ([2]; H2O /DMSO 5:5, 20 °C): G
Gelbildungsverhalten ([2]; H2O /DMSO 5:5, 39 °C): G
Gelbildungsverhalten ([2]; H2O /DMSO 5:5, 50 °C): I
Gelbildungsverhalten ([2]; H2O /DMSO 5:5, -27 °C): G
Gelbildungsverhalten ([2]; H2O /DMSO 6:4, 4 °C): G
Gelbildungsverhalten ([2]; H2O /DMSO 6:4, 20 °C): G
Gelbildungsverhalten ([2]; H2O /DMSO 6:4, 39 °C): G
Gelbildungsverhalten ([2]; H2O /DMSO 6:4, 50 °C): I
Gelbildungsverhalten ([2]; H2O /DMSO 6:4, -27 °C): S
Gelbildungsverhalten ([2]; H2O /DMSO 7:3, 4 °C): G
Gelbildungsverhalten ([2]; H2O /DMSO 7:3, 20 °C): G
Gelbildungsverhalten ([2]; H2O /DMSO 7:3, 39 °C): G
Gelbildungsverhalten ([2]; H2O /DMSO 7:3, 50 °C): I
Gelbildungsverhalten ([2]; H2O /DMSO 7:3, -27 °C): S
Gelbildungsverhalten ([2]; H2O /DMSO 8:2, 4 °C): G
Gelbildungsverhalten ([2]; H2O /DMSO 8:2, 20 °C): G
Gelbildungsverhalten ([2]; H2O /DMSO 8:2, 39 °C): G
Gelbildungsverhalten ([2]; H2O /DMSO 8:2, 50 °C): I
Gelbildungsverhalten ([2]; H2O /DMSO 8:2, -27 °C): S
Gelbildungsverhalten ([2]; H2O /DMSO 9:1, 4 °C): G
Gelbildungsverhalten ([2]; H2O /DMSO 9:1, 20 °C): G
Gelbildungsverhalten ([2]; H2O /DMSO 9:1, 39 °C): G
Gelbildungsverhalten ([2]; H2O /DMSO 9:1, 50 °C): I
Gelbildungsverhalten ([2]; H2O /DMSO 9:1, -27 °C): S
Schaumbildung auf Haar / in der Hand [3]: bester Schaumbildner
Porengröße der Bläschen ([4]; 0 min., almost all bubbles): < 10000 µm^2
Anteil der Bläschen mit einer Größe von unter 10000 µm^2 ([4]; nach 10 min.): ein Viertel
Gelbildung ([5]; 11 Gew.% Laurylethersulfat to 4 Gew.% of the β-anomer): Gelbildung aber wieder einsetzt
Gelbildung ([5]; mixture of 13 Gew% Laurylethersulfat with 2 Gew.% of the β-anomer): kein Gel mehr bildet
Anteil an α-Anomer, ab dem die Gelbildung durch das β-Anomer aufgehoben wird ([5]; mixture of α- and β-anomer): > 80 Gew.%
Schaumbildner (comparison with SLES) [6]: wesentlich bessere Schaumbildner als Natriumlauryethersulfat (SLES)
Tgel ([1]; 0.03 Gew.% (0.60 mM) in water): 10 °C
Tgel ([1]; 0.04 Gew.% (0.72 mM) in water): 21 °C
Tgel ([1]; 0.05 Gew.% (0.90 mM) in water): 30 °C
Tgel ([1]; 0.06 Gew.% (1.03 mM) in water): 35 °C
Tgel ([1]; 0.07 Gew.% (1.20 mM) in water): 38 °C
Tgel ([1]; 0.08 Gew.% (1.44 mM) in water): 40 °C
Tgel ([1]; 0.1 Gew.% (1.80 mM) in water): 43 °C
Übergangstemperatur [1]: 43 °C
Tgel ([1]; 0.13 Gew.% (2.41 mM) in water): 45 °C
Tgel ([1]; 0.2 Gew.% (3.61 mM) in water): 46 °C
Tgel ([1]; 0.5 Gew.% (9.02 mM) in water): 48 °C
Tgel ([1]; 1 Gew.% (18.04 mM) in water): 50 °C
Tgel ([1]; 5 Gew.% (90.20 mM) in water): 51 °C
Tgel ([1]; 10 Gew.% (180.40 mM) in water): 51 °C

SMILES: CCCCCCCCCCCCOCCO[C@@H]1O[C@H](CO)[C@@H](O[C@H]2O[C@H](CO)[C@@H](O)[C@H](O)[C@H]2O)[C@H](O)[C@H]1O [Mal-EG-C12, (2'-Dodecyloxyethyl) 4-O-(α-D-glucopyranosyl)-β-D-glucopyranosid]
Schaumbildner (comparison with SLES) [6]: wesentlich bessere Schaumbildner als Natriumlauryethersulfat (SLES)

Übergangstemperatur [1]: 41 °C
SMILES: CCCCCCCCCCCCOC(C)CO[C@@H]1O[C@H](CO)[C@@H](O[C@@H]2O[C@H](CO)[C@H](O)[C@H](O)[C@H]2O)[C@H](O)[C@H]1O (stereo partly drawn) [Lac-PG-C12, (2'-Dodecyloxypropyl) 4-0-(β-D-galactopyranosyl)-β-D-glucopyranosid]

SMILES: CCCCCCCCCCCCOCCO[C@@H]1O[C@H](CO[C@H]2O[C@H](CO)[C@H](O)[C@H](O)[C@H]2O)[C@@H](O)[C@H](O)[C@H]1O [Mel-EG-C12, (2'-Dodecyloxyethyl) 6-O-(α-D-galactopyranosyl)-β-D-glucopyranosid]
Schaumbildner (comparison with SLES) [6]: wesentlich bessere Schaumbildner als Natriumlauryethersulfat (SLES)
